# Columns and labels:
# Type in all cases: functional
# Tetranychus urticae [1] = test: Acaricidal activity against Tetranychus urticae (two-spotted spider mite) in kidney bean leaf assessed as mortality at 500 ppm at 25 degC measured after 5 days; conditions: 120 h
# Tetranychus urticae [2] = test: Acaricidal activity against Tetranychus urticae (two-spotted spider mite) in kidney bean leaf assessed as mortality at 3.1 ppm at 25 degC measured after 5 days; conditions: 120 h
# Tetranychus urticae [3] = test: Acaricidal activity against Tetranychus urticae (two-spotted spider mite) in kidney bean leaf assessed as mortality at 12.5 ppm at 25 degC measured after 5 days; conditions: 120 h
# Tetranychus urticae [4] = test: Acaricidal activity against Tetranychus urticae (two-spotted spider mite) in kidney bean leaf assessed as mortality at 50 ppm at 25 degC measured after 5 days; conditions: 120 h
# Tetranychus urticae [5] = test: Acaricidal activity against Tetranychus urticae (two-spotted spider mite) in kidney bean leaf assessed as mortality at 200 ppm at 25 degC measured after 5 days; conditions: 120 h
# Panonychus citri [6] = test: Ovicidal activity against Panonychus citri in mandarin orange leaf assessed as egg mortality at 25 degC measured after 7 days; conditions: 168 h
# Panonychus citri [7] = test: Adulticidal activity against Panonychus citri in mandarin orange leaf assessed as mortality at 25 degC measured after 2 days; conditions: 48 h
# Tetranychus urticae [8] = test: Ovicidal activity against Tetranychus urticae (two-spotted spider mite) in kidney bean leaf assessed as egg mortality at 25 degC measured after 7 days; conditions: 168 h
# Tetranychus urticae [9] = test: Adulticidal activity against Tetranychus urticae (two-spotted spider mite) in kidney bean leaf assessed as mortality at 25 degC measured after 2 days; conditions: 48 h
SMILES,mortality at 500 ppm (Tetranychus urticae [1]) [%],mortality at 3.1 ppm (Tetranychus urticae [2]) [%],mortality at 12.5 ppm (Tetranychus urticae [3]) [%],mortality at 50 ppm (Tetranychus urticae [4]) [%],mortality at 200 ppm (Tetranychus urticae [5]) [%],LC50 (Panonychus citri [6]) [µg/mL],LC50 (Panonychus citri [7]) [µg/mL],LC50 (Tetranychus urticae [8]) [µg/mL],LC50 (Tetranychus urticae [9]) [µg/mL]
CCc1nn(C)c(C(=O)NCc2ccc(C(C)C)cc2)c1Cl,100,0,30,100,100,,,,
CCc1nn(C)c(C(=O)NCc2ccc(C(C)(C)C)cc2)c1Br,,,,,,10,0.59,1.4,7.1
CCc1nn(C)c(C(=O)NCc2ccc(C3CC3)cc2)c1Cl,30,0,0,0,0,,,,
CCCCc1ccc(CNC(=O)c2c(Cl)c(CC)nn2C)cc1,100,0,80,100,100,,,,
Cc1cc(C(=O)NCc2ccc(C(C)(C)C)cc2)n(C)n1,100,0,30,100,100,,,,
Cc1nn(C)c(C(=O)NCc2ccc(C(C)(C)C)cc2)c1C,100,0,100,100,100,36,6.1,8.8,7.5
Cc1nn(C)c(C(=O)NCc2ccc(C(C)(C)C)cc2)c1C#N,0,0,0,0,0,,,,
Cc1nn(C)c(C(=O)NCc2ccc(C(C)(C)C)cc2)c1[N+](=O)[O-],0,0,0,0,0,,,,
COc1c(C)nn(C)c1C(=O)NCc1ccc(C(C)(C)C)cc1,100,0,100,100,100,,,,
CCOc1c(C)nn(C)c1C(=O)NCc1ccc(C(C)(C)C)cc1,100,0,0,0,100,,,,
Cc1nn(C)c(C(=O)NCc2ccc(C(C)(C)C)cc2)c1OC(F)F,100,0,0,0,0,,,,
Cc1nn(C)c(C(=O)NCc2ccc(C(C)(C)C)cc2)c1N,0,0,0,0,0,,,,
CC(=O)Nc1c(C)nn(C)c1C(=O)NCc1ccc(C(C)(C)C)cc1,0,0,0,0,0,,,,
Cn1ncc(Cl)c1C(=O)NCc1ccc(C(C)(C)C)cc1,100,0,0,30,100,,,,
CC(C)c1nn(C)c(C(=O)NCc2ccc(C(C)(C)C)cc2)c1Cl,100,0,30,100,100,,,,
Cn1nc(C2CC2)c(Cl)c1C(=O)NCc1ccc(C(C)(C)C)cc1,30,0,0,0,0,,,,
CCCc1nn(C)c(C(=O)NCc2ccc(C(C)(C)C)cc2)c1Cl,100,0,0,30,80,,,,
CCCCc1nn(C)c(C(=O)NCc2ccc(C(C)(C)C)cc2)c1Cl,0,0,0,0,0,,,,
CC(C)Cc1nn(C)c(C(=O)NCc2ccc(C(C)(C)C)cc2)c1Cl,0,0,0,0,0,,,,
Cn1nc(-c2ccccc2)c(Cl)c1C(=O)NCc1ccc(C(C)(C)C)cc1,0,0,0,0,0,,,,
CCc1nn(C)c(C(=O)NCc2ccccc2)c1Cl,0,0,0,0,0,,,,
CCc1nn(C)c(C(=O)NCc2ccc(C)cc2)c1Cl,0,0,0,0,0,,,,
CCc1ccc(CNC(=O)c2c(Cl)c(CC)nn2C)cc1,30,0,0,0,0,,,,
CCCc1ccc(CNC(=O)c2c(Cl)c(CC)nn2C)cc1,100,0,0,0,30,,,,
Cc1nn(C)c(C(=O)NCc2ccc(C(C)(C)C)cc2)c1Br,100,0,30,100,100,17,4,3,9.8
Cc1nn(C)c(C(=O)NCc2ccc(C(C)(C)C)cc2)c1Cl,100,30,100,100,100,9.9,3.1,2.4,7.7
CCc1nn(C)c(C(=O)NCc2ccc(C(C)(C)C)cc2)c1Cl [TEBUFENPYRAD],100,100,100,100,100,3.9,0.5,0.96,3.7

# Source: ChEMBL document CHEMBL3045921, “Synthesis and Acaricidal Activity of Pyrazole-5-carboxamide Derivatives” (1991)
